The structures appear in SMILES notation. pIC50, pKi: −log10 of the molar value. Entries after “also recorded” stand apart in the source; their conditions may differ. Read-outs that look alike come from different tables or passages of the source.

The values that follow come from patent US20080287375A1, “Selective Glycosidase Inhibitors, Methods of Making Inhibitors, and Uses Thereof” (SIMON FRASER UNIVERSITY, priority 2005, published 2008).

The target in data set [1] is T1, O-GlcNAcase (Homo sapiens, UniProt O60502).
T1 sequence (O60502 1-916): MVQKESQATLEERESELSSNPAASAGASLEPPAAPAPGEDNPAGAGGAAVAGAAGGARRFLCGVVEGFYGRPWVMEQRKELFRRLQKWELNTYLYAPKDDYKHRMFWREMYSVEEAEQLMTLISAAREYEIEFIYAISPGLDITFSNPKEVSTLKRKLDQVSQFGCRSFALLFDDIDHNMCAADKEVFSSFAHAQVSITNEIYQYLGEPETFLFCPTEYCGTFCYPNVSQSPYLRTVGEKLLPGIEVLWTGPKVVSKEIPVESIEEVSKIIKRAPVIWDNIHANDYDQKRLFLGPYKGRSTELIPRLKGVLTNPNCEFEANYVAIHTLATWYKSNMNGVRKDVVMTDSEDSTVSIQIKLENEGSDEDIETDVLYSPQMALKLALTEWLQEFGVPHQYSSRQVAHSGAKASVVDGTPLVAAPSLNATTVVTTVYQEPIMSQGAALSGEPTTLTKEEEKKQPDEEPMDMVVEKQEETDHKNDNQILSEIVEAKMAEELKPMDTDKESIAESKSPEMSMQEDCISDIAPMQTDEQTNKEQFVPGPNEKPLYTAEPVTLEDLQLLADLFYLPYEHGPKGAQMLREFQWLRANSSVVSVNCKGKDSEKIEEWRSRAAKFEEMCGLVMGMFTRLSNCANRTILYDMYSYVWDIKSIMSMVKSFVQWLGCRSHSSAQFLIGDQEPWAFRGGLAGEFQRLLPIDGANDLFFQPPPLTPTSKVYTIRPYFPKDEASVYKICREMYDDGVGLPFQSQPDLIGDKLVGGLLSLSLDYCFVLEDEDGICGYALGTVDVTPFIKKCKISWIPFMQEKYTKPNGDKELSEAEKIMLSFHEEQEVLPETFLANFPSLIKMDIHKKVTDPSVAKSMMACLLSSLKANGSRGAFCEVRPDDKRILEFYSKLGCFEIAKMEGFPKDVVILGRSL

In data set [2] the target is O-GlcNAcase. The following applies: read-out: IC50, O-GlcNAcase, previous determinations; cited from earlier work.
For data set [3], the target named is T1, O-GlcNAcase. The data set can be described thus: Time dependent inactivation of O-GlcNAcase by STZ.
Data set [4] in a line: Decomposition of STZ in D2O followed by NMR. The following applies: room temperature.
The subject of another data set is β-hexosaminidase. Kind of data set: Time dependent inactivation of β-hexosaminidase by STZ. The following applies: 10 mM STZ, pH 4.25, over six hours.
For data set [5], the target named is human placental β-hexosaminidase. The data set can be described thus: Inhibition of β-hexosaminidase, substrate MU-GlcNAc (5), Dixon plots.
For data set [6], the system named is O-GlcNAc-modified proteins in COS-7 cells. The data set can be described thus: Western blot of O-GlcNAc-modified proteins in COS-7 cells cultured with inhibitors. The format is cell-based. Particulars: 50 μM inhibitor, 40 hours, Western blot. How it is done:
(§1) COS-7 cells were cultured in DMEM medium (Invitrogen) supplemented with 5-10% FBS (Invitrogen). Aliquots of inhibitors (50 μL of a stock in 95% ethanol) were delivered onto tissue culture plates and the ethanol was evaporated. The cells were incubated at 37° C. for 40 hours at which time they reached approximately 80% confluence. […] COS-7 cells were cultured to 25% confluence in 5% FBS and an aliquot (100 μL) of inhibitor dissolved in media and filter sterilized was added to each plate to yield a final concentration of 50 μM of inhibitor. COS-7 cells (2×10 cm plates) were harvested at the appropriate times by scraping and were pooled by centrifugation (200×g, 10 min). Cells were washed once with PBS, pH 7.0 (10 mL) and pelleted (200×g, 10 min). The cells could be frozen at −80° C. at this point. Control cultures without inhibitors were treated in the same manner.
A culture of control cells was treated in the same manner as follows but the cultures contained no inhibitor. Cells were harvested as described above. Frozen cells were thawed at 4° C., and cold lysis buffer (1 mL of 50 mM Tris, pH 8.0 containing 150 mM NaCl, 1 mM EDTA, 1 mM PMSF, 1% NP-40, 0.5% sodium deoxycholate, and 1 mM of inhibitor 90) was added. After 10 minutes at 4° C. the solution was centrifuged at 14,000 rpm in an Eppendorf 5415C microcentrifuge and the supernatant was collected. SDS/PAGE loading buffer was added to an aliquot (15 μL) of each sample, and after heating at 96° C. aliquots were loaded onto 10% or 12% Tris-HCl polyacrylamide gels. After electrophoresis, the samples were electroblotted to nitrocellulose membrane (0.45 μm, Bio-Rad). Transfer was verified by visual inspection of the transfer of prestained markers (Dual Colour Precision Plus Protein Standard—Biorad). The membrane was blocked by using 5% BSA (fraction V, Sigma) in PBS (blocking buffer A for samples probed with mouse anti-O-GlcNAc monoclonal IgM antibody (MAb CTD 110.6—Covance)) or 5% low-fat dry powdered milk (blocking buffer B for samples probed with anti-β-actin), pH 7.4, containing 0.1% Tween 20 for 1 h at room temperature or overnight at 4° C. The blocking solution was decanted, and a solution of blocking buffer A containing MAb CTD 110.6 (1:2500 of the stock) or blocking buffer B containing mouse monoclonal anti-β-actin IgG (Clone AC-40—Sigma) was added (1:1000 dilution) as appropriate. The membrane was incubated at room temperature for 1 h or overnight at 4° C. after which the blocking buffer was decanted and the membrane was rinsed with PBS, pH 7.4, containing 0.1% Tween 20 (wash buffer). Membranes were then rinsed for 2×5 min and 3×15 min with wash buffer. For immunological detection of O-GlcNAc, the membrane was incubated in blocking buffer A for 1 hour at RT and, after washing, the membrane was incubated with a secondary goat anti-mouse-IgM-HRP-conjugate (1:2500, Santa Cruz Biotech) for one hour at RT or 4° C. overnight in blocking solution. For detection of β-actin levels, the membrane was incubated with a secondary goat anti-mouse-IgG-HRP conjugate (1:100000, Sigma) for one hour at RT or 4° C. overnight in blocking solution B. Membranes were washed and detection of membrane bound goat anti-mouse-IgG-HRP conjugate was accomplished by chemiluminescent detection using the SuperSignal West Pico Chemiluminescent Detection Kit (Pierce) and film (Kodak Biomax MR).

The next data set deals with COS-7 cells. The data set can be described thus: Proliferation rate and morphology of COS-7 cells incubated with inhibitors. Type of data set: cell-based. Particulars: 50 μM inhibitor. The protocol: as §1

In the case of `CN(N=O)C(=O)N[C@H]1C(O)O[C@H](CO)[C@@H](O)[C@@H]1O` (mixture of isomers) [STZ, streptozotocin], at O-GlcNAcase [1], the “inhibition of O-GlcNAcase, in words” value was “poor inhibitor”; the “selectivity for O-GlcNAcase over β-hexosaminidase, in words” value was “moderate selectivity”; the “selectivity ratio for O-GlcNAcase over β-hexosaminidase” value turned out to be 31 fold. The “Selectivity Ratio (β-Hex KI/O-GlcNAcase KI)” value at O-GlcNAcase [1] (Table 2) was 31. Further, at O-GlcNAcase [1] (read-out: KI, O-GlcNAcase, pH 6.5), the negative logarithm of the Ki (pKi) was 2.82. Further, the pIC50 at O-GlcNAcase [2] is 2.60 to 3.00. For the same compound, on O-GlcNAcase [3] (10 mM STZ, pH 6.5, over six hours), the “time dependent inactivation of O-GlcNAcase” value is “did not act as a time dependent inactivator; also recorded: does not show a time dependent inactivation”. In addition, the “expected ratio of reaction velocities VControl/VSTZ, O-GlcNAcase” value on O-GlcNAcase [3] (calculated assuming competitive inhibition, KI=1.5 mM, 1.2 mM STZ in assay) is recorded as 1.17. Besides, the “half-life in aqueous solution (D2O)” value in data set [4] is “greater than 6 hours”. In the data set on β-hexosaminidase, the “time dependent inactivation of β-hexosaminidase” value is reported as “did not act as a time dependent inactivator; also recorded: does not show a time dependent inactivation”. Moreover, the pKi in data set [5] (read-out: KI, β-hexosaminidase, human lysosomal β-hexosaminidase) was 1.33. For the same compound, in data set [5] (read-out: β-Hexosaminidase KI, Table 2, substrate 5 at 0.64 mM, pH 4.25, Dixon plots), the negative logarithm of the Ki (pKi) is 1.33.

As to `CC1=N[C@@H]2[C@@H](O)[C@H](O)[C@@H](CO)O[C@@H]2S1` [Compound 9a, 2′-methyl-α-D-glucopyrano-[2,1-d]-Δ2′-thiazoline, reference compound], the “cellular levels of O-GlcNAc-modified proteins compared to control” value in data set [6] is reported as “Marked increases; also recorded: increase in cellular levels of O-GlcNAc-modified proteins”. Further, the “proliferation rate or morphology compared to control cells” value in the data set with COS-7 cells is listed as “no abnormalities in proliferation rate or morphology”. Moreover, the “binding more tightly than GlcNAc, β-hexosaminidase” value in data set [5] was found to be 17000 fold.

For the compound `CC(C)CC1=NC2C(OC(CO)C(O)C2O)S1` [Compound 9g, 1,2-dideoxy-2′-isobutyl-α-D-glucopyranoso-[2,1-d]-42′-triazoline D], the “cellular levels of O-GlcNAc-modified proteins compared to control” value in data set [6] is listed as “Marked increases; also recorded: increase in cellular levels of O-GlcNAc-modified proteins”. Further, the “inhibition of O-GlcNAcase, in words” value on O-GlcNAcase [1] is reported as “good inhibitors”. In the data set on COS-7 cells, the “proliferation rate or morphology compared to control cells” value is on record as “no abnormalities in proliferation rate or morphology”.

In general, pKi refers to the negative decadic logarithm of the Ki, by convention in mol/L. Broadly, the pIC50 is the negative decadic logarithm of the IC50, by convention in mol/L.
